Consider four compounds from patent publication US20160362744A1, “Biomarkers of Mineralocorticoid Receptor Activation” (INSERM (Institut National de la Sante et de la Recherche …, priority 2008, published 2016).

Assay [1] has as its target T1, rat MR (Rattus norvegicus, UniProt P22199).
T1 construct: expressed in transfected cells; host or cells: rat H9C2 cardiomyocyte cells (H9-C2/MR)
T1 sequence (P22199 1-981): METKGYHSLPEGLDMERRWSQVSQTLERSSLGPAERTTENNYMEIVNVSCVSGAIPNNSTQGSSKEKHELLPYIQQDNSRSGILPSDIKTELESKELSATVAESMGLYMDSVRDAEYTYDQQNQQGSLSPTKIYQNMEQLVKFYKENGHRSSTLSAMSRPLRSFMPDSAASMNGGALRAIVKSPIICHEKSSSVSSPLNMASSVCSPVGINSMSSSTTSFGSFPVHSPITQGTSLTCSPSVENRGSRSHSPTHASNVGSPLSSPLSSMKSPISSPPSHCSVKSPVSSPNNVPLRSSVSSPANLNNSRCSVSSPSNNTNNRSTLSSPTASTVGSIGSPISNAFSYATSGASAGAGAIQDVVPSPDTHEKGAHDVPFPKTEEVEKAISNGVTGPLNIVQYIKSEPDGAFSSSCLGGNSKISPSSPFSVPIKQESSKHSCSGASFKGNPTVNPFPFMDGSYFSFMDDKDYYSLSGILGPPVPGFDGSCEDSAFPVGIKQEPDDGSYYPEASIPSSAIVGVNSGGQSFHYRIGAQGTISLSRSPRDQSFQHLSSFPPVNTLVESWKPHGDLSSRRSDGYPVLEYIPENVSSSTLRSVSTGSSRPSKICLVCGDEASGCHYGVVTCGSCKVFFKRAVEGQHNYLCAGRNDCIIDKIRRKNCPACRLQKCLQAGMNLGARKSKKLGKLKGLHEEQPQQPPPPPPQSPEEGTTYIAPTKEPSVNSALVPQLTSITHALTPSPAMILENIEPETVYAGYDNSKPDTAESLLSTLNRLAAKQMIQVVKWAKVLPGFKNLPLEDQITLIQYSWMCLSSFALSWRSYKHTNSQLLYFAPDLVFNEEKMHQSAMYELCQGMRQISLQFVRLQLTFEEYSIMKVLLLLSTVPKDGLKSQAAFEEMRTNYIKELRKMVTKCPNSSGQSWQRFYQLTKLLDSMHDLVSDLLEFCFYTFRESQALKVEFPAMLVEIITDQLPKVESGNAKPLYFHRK
Nature of the assay: Expression of Serpina3 mRNA (Q-PCR) in rat cardiomyocyte H9C2 cells stably overexpressing rat MR. Type of assay: cell-based. Particulars: for serpina3 induction, time course: Aldosterone 10 nM. The method, then: Expression of Serpina3 in a Cellular Model of Rat Cardiomyocyte (H9C2 Cells) Stably Overexpressing with Rat MR
Quantitative Serpina3 mRNA expression was analyzed by quantitative PCR (Q-PCR, Light Cycler, Biorad) using forward 5′-[…]-3′ (SEQ ID NO:7) and reverse 5′-[…]-3′ (SEQ ID NO:8) primers on 25 μl of RT-PCR (using the qPCR Core kit for Sybr Green I from Eurogentec) prepared using 2 μg DNA-free total RNA extracted from rat H9-C2/MR cells treated with various concentrations of aldosterone or 10^−8M corticosterone or 10^−6 M MR antagonist RU 28318, alone or in combination.

For assay [2], the target named is T1, rat MR. The assay is described as follows: Expression of NGAL mRNA (Q-PCR) in rat cardiomyocyte H9C2 cells stably expressing rat MR. Type of assay: cell-based. The conditions noted are these: for Lipocalin2/NGAL expression, time-course: 10^−8M aldosterone. The procedure: Expression of NGAL in a Cellular Model of Rat Cardiomyocyte (H9C2 Cells) Stably Overexpressing with Rat MR
Quantitative NGAL mRNA expression was analyzed by quantitative PCR (Q-PCR, Light Cycler, Biorad) using forward 5′-[…]-3′ (SEQ ID NO:3) and reverse 5′-[…]-3′ (SEQ ID NO:4) primers on 25 μl of RT-PCR (using the qPCR Core kit for Sybr Green I from Eurogentec) prepared using 2 μg DNA-free total RNA extracted from rat H9-C2/MR cells treated with various concentrations of aldosterone or 10^−8M corticosterone or 10^−6 M MR antagonist RU 28318 or GR antagonist RU 486, alone or in combination.

In assay [3] the target is T2, MR (Mus musculus, UniProt Q8VII8).
T2 construct: from tissue; host or cells: living mice (heart, plasma)
T2 sequence (Q8VII8 1-978): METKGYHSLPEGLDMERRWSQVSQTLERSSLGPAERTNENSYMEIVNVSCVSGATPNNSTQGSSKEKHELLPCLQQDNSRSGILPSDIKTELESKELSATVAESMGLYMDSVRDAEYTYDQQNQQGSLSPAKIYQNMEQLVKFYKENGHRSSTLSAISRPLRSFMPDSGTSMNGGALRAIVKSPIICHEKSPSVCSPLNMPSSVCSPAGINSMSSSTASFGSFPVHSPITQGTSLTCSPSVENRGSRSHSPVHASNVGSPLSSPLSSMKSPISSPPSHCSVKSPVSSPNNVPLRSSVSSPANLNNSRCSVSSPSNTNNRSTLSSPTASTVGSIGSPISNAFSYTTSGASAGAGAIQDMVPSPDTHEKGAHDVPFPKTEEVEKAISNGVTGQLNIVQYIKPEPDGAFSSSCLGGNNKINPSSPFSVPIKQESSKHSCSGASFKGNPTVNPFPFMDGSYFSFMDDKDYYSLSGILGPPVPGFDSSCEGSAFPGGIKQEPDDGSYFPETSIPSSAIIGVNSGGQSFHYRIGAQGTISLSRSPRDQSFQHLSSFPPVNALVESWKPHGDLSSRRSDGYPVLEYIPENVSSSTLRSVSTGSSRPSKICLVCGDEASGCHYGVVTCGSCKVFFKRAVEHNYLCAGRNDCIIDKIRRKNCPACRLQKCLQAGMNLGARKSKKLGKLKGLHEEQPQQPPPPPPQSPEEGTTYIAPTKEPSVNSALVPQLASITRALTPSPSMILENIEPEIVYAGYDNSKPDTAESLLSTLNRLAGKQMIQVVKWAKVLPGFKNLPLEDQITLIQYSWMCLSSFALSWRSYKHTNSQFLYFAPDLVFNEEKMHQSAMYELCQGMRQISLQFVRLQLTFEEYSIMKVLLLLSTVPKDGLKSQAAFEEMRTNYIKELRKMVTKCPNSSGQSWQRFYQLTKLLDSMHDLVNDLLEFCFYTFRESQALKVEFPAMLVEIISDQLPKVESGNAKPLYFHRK
The assay is described as follows: Plasma NGAL (ELISA) in db/db mouse model of type II diabetes treated with MR antagonist. Type of assay: in vivo, mice.

Assay [4] deals with T2, MR. Nature of the assay: NGAL expression in uninephrectomized mice with aldosterone infusion and 1% salt (aldo/salt model). The format is in vivo. Particulars: 3 weeks. The method, then: Quantitative NGAL mRNA expression was analyzed by quantitative PCR (Q-PCR, Light Cycler, Biorad) using forward 5′-[…]-3′ (SEQ ID NO:1) and Reverse 5′-[…]-3′ (SEQ ID NO:2) primers on 25 μl of RT-PCR (using the qPCR Core kit for Sybr Green I from Eurogentec) prepared using 2 μg DNA-free total RNA extracted from the heart of one, two and three mo-old MR transgenic mice and compared to matched littermates, as well as two mo-old GR transgenic mice (and respective control littermates). Protein expression of NGAL was analyzed in cardiac protein extracts from two mo-old MR mice using a specific NGAL antibody (AF1857, R&D Systems). […]
Quantitative NGAL mRNA expression was also analyzed by Q-PCR in the heart of mice with uninephrectomy and treated with aldosterone infusion (60 μg/kg/j, 0.25 μl/h ALZET minipumps) and 1% salt in the drinking water for 3 weeks (as compared to uninephrectomized-only control mice), and in thoracic aorta from 9 months-old mice with conditional overexpression of the human MR in the endothelium only obtained after appropriate breeding of the MR transgenic mice described above with an endothelial-specific transactivator mice (provided by L. E. Benjamine, Harvard, USA) (Sun et al., 2005) that allowed conditional expression of hMR in the endothelium only. […]

“Also recorded” adds a separate entry of the source.

As for `C[C@]12C[C@H](O)[C@H]3[C@@H](CCC4=CC(=O)CC[C@@]43C)[C@@H]1CC[C@@H]2C(=O)CO` [corticosterone], the “SERPINA3 mRNA expression” value in assay [1] (H9C2/MR cells, 10 nM corticosterone, 24 h) is “increased”. The Lipocalin2/NGAL expression entry in assay [2] (10^−8M corticosterone) is “stimulated”.

With `C[C@]12CCC(=O)C=C1C=C[C@@H]1[C@@H]2CC[C@@]2(C)[C@H]1CC[C@@]2(O)CCC(=O)O` [canrenoate], the “Effect on plasma levels of lipocalin2/NGAL in control mice” value in assay [3] (control mice, 17 weeks treatment) was “no effect”. In addition, the “Effect on increase in plasma levels of lipocalin2/NGAL in db/db mice” value in assay [3] (db/db mice, 17 weeks in vivo treatment, 100 mg/Kg/day in drinking water) is “prevented”.

`C[C@]12CCC(=O)C=C1CC[C@@H]1[C@@H]2[C@@H](O)C[C@]2(C=O)[C@@H](C(=O)CO)CC[C@@H]12` [aldosterone]: in assay [4] (60 μg/kg/j infusion, quantitative PCR), the “Lipocalin2/NGAL expression in the heart” value is listed as “increased”. In addition, the “plasma levels of lipocalin2/NGAL” value in assay [4] (ELISA) is listed as “increased”. Also, in assay [1] (H9C2/MR cells, 1 nM aldosterone for 24 h), the “expression of serpina3 (in words)” value is on record as “increased”. For the same compound, the “Serpina3 expression (in words)” value in assay [1] (H9C2/MR cells, 10 nM aldosterone, 24 h exposure) was “highly induced”. The “serpina3 induction, time course” value in assay [1] (H9C2/MR cells, after 10 hours) is “induced”; in assay [1] (H9C2/MR cells, after 24 h) it was 15 ×. The “Serpina3 induction, dose-response” value in assay [1] (H9C2/MR cells, aldosterone, starting with 1 nM) was “dose-dependent; also recorded: Concentration dependent induction”. In addition, in assay [1] (H9C2/MR+ cells, aldosterone 1 nM for 24 hrs), the “SERPINA3 mRNA induction” value is “about 8 fold”. Besides, the Lipocalin2/NGAL expression entry in assay [2] (10^−8M aldosterone for 24 h) is listed as “increased”. Also, the results for the “Lipocalin2/NGAL expression, time-course” value in assay [2] (after 24 h) and in assay [2] (after 48 h) were “induced” and “remained sustained”, respectively. Further, in assay [2] (increasing concentrations of aldosterone), the “Lipocalin2/NGAL expression, dose-response” value is reported as “stimulated by increasing concentrations”.

Consider `CCC[C@@H]1CC2=CC(=O)CC[C@]2(C)[C@H]2CC[C@@]3(C)[C@@H](CC[C@@]3(O)CCC(=O)[O-])[C@H]12.[K+]` [RU 28318], for which the “Effect on corticosterone induction of SERPINA3 mRNA” value in assay [1] (H9C2/MR+ cells, MR antagonist with 10 nM corticosterone) is listed as “prevented”. Besides, the “Effect on aldosterone induction of SERPINA3 mRNA” value in assay [1] (H9C2/MR+ cells, in presence of MR antagonist with 1 nM aldosterone) is “suppressed”. In assay [2] (antagonist (10^−6 M) added to 10^−8M aldosterone), the “Effect on aldosterone-induced increase of Lipocalin2/NGAL expression” value is reported as “prevented”. The “Effect on corticosterone-induced increase of Lipocalin2/NGAL expression” value in assay [2] (antagonist (10^−6 M) with 10^−8M corticosterone) is on record as “prevented”.
